# Values of other authors in patent US9943555B2, “Bacteria engineered to reduce hyperphenylalaninemia” (Synlogic, Inc., priority 2015, dated 2018).
# Tested on: patients / subjects with phenylketonuria
structure (smiles),measurement,value
"C[C@H](O)[C@H](O)[C@H]1CNc2nc(N)[nH]c(=O)c2N1 [Kuvan, tetrahydrobiopterin]",side effects,gastritis and severe allergic reactions
